In patent US20150148383A1, “Methods for Inhibiting or Reversing Epiretinal Membrane Formation” (Regenerative Research Foundation, priority 2013, published 2015):

What was measured:
[1] = test system: adult human RPE cells; assay: Gene expression analysis by real time PCR of RPE and mesenchymal markers; format: cell-based; details: 10 mM nicotinamide, relative to control
[2] = test system: Adult human RPE; assay: Transepithelial resistance (TER) of RPE on transwells; format: cell-based; details: measured weekly for one month; presence vs absence of nicotinamide
Protocol: The transepithelial resistance (TER) is measured during and after treatment of hRPE cells cultured in 12-well 0.4 μm transwell inserts using the EVOM2 World Precision Instruments Volt Ohm Meter protocol. Resistance is measured in Ω-cm^2 and recorded prior to treatment to confirm that all wells are at approximately the same TER. The TER of a cell-free transwell insert of ˜110 Ω-cm^2 is subtracted to obtain the resistance of the cellular epithelium. TER is measured in each well after treatment to assess the change caused by nicotinamide. Adult human RPE were plated on semi-permeable polyester transwells and transepithelial resistance was measured weekly for one month.

[3] = test system: RPE cells; assay: RPE cell proliferation assay (Ki67 immunostaining, cell number); format: cell-based, human; details: 10 mM nicotinamide; 5 days in DMEM/F12, 5% FBS
Description: (§1) Primary adult RPE cells were obtained from cadaveric human eyes under IRB-approved protocols, within 36-hours of the time of death. The anterior half of the eye was removed followed by the vitreous, and retina, isolating the posterior eyecup with the RPE/Bruch's membrane/choroid complex intact (as described in Blenkinsop T A, et al. The culture and maintenance of functional retinal pigment epithelial monolayers from adult human eye. 2012; Salero E et al. Adult human RPE can be activated into a multipotent stem cell that produces mesenchymal derivatives. Cell Stem Cell. 2012; 10(1):88-95). […] Once the primary (passage zero) cells reached confluence (˜20 days), the FBS concentration was reduced to 5%. Then, following the protocol developed by Salero S et al., 2012 (supra), the RPE were activated to proliferate in RPE medium with 5% FBS. The expanded RPE cells were plated at 30,000 cells per well in a 24-well plate and cultured in DMEM/F12, 5% FBS. Proliferation rates were measured by manual and/or automated counting of cell number as a function of time.
Cells were fixed with 4% paraformaldehyde for 15 minutes, permeabilized with 0.2% Triton in PBS, blocked with 1% BSA for 30 minutes. Primary antibodies were used at 1:100 dilution in PBS. […]
RPE cells were plated at 30,000 cells per well in a 24 well plate and cultured for 5 days in DMEM/F12, 5% FBS and cell proliferation was measured.

[4] = test system: Adult human RPE; assay: Oxidative stress analysis: TBHP-induced TIMP-3 expression; details: 500 μM TBHP 2 hours daily; presence vs absence of nicotinamide; quantitative PCR
[5] = test system: fibroblastic cultures derived from RPE; assay: Reversal of epithelial to mesenchymal transition in fibroblastic cultures derived from RPE; format: cell-based, human; details: 10 mM nicotinamide, media changed 3 times a week; micrograph at 8 weeks
Protocol: Epithelial to mesenchymal transition (EMT) was determined in fibroblastic cultures as follows: cells were plated 30,000 cells per 1 cm^2 tissue culture plate in DMEM/F12 with 5% FBS with the addition of 10 ng/ml TGFβ and 10 ng/ml TNFα to induce epithelial to mesenchymal transition (EMT). The extent of EMT was determined by the morphologic changes and immunohistochemical stains described above. Epithelial cells were plated at 30,000 cells/cm^2 and cultured until confluent (left image), after which 10 mM nicotinamide was added to the media, which was changed 3 times a week for 8 weeks (FIG. 10). The swirling fibroblastic morphology seen prior to addition of nicotinamide seen at the ‘3 week’ stage indicate the RPE cells have undergone EMT, losing their cobblestone morphology.

[6] = test system: RPE cells; assay: RPE morphology in vitro by light microscopy; format: cell-based, human; details: 10 mM nicotinamide vs no nicotinamide
Description: as §1
Cultures were imaged at 32× on a Zeiss Observer.D1 fluorescent microscope.
Cultured RPE cells were analyzed by light microscopy.

[7] = test system: RPE cells; assay: Dose response for prevention of epithelial to mesenchymal transition, SNAIL staining read-out; format: cell-based, human; details: all concentrations: 10 μM, 100 μM, 1 mM or 10 mM nicotinamide; 5 days
Protocol: Cells were fixed with 4% paraformaldehyde for 15 minutes, permeabilized with 0.2% Triton in PBS, blocked with 1% BSA for 30 minutes. Primary antibodies were used at 1:100 dilution in PBS. The corresponding Alexafluor 647 secondary antibodies were used for the respective primary antibody and imaged on a Zeiss Observer.D1 fluorescent microscope. A dose response curve for the effect of nicotinamide on the prevention of epithelial to mesenchymal transition was determined using SNAIL expression as a read-out. RPE cells were cultured at 30,000 cells/well in a 24 well plate and cultured for 5 days in the presence of media containing 10 μM, 100 μM, 1 mM or 10 mM nicotinamide or control (no nicotinamide). The media was changed 3 times, and replaced with media containing the same concentration of nicotinamide, after which the cells were fixed and stained with fluorescently-labeled anti-SNAIL antibody. At all concentrations, SNAIL staining was decreased by application of nicotinamide.

[8] = test system: human RPE cells; assay: ZO-1 tight junction protein immunostaining; format: cell-based
Protocol: Cells were fixed with 4% paraformaldehyde for 15 minutes, permeabilized with 0.2% Triton in PBS, blocked with 1% BSA for 30 minutes. Primary antibodies were used at 1:100 dilution in PBS. The corresponding Alexafluor 647 secondary antibodies were used for the respective primary antibody and imaged on a Zeiss Observer.D1 fluorescent microscope.

Q: With `NC(=O)c1cccnc1` [nicotinamide, Nicotinamide] as the compound, how does the “MITF mRNA expression (RPE marker)” value [1] read?
A: increased

Q: What about the “RPE65 mRNA expression (RPE marker)” value [1] of the same compound?
A: increased

Q: And the “SLUG mRNA expression (mesenchymal marker)” value [1]?
A: decreased

Q: What about the “SNAIL mRNA expression (mesenchymal marker)” value [1] of the same compound?
A: decreased

Q: What about the “TWIST mRNA expression (mesenchymal marker)” value [1] of the same compound?
A: decreased

Q: What about the transepithelial resistance [2] of the same compound?
A: increased over time

Q: And the “immunostaining for the cell proliferation marker Ki67” value [3]?
A: decreased immunostaining

Q: What about the total cell number [3] of the same compound?
A: decrease in the total cell number

Q: And the “TBHP-induced TIMP3 expression relative to day 0” value [4]?
A: suppressed

Q: And the “cell morphology after EMT (reversal of EMT)” value [5]?
A: revert to their physiologic cobblestone morphology

Q: What about the RPE cell morphology [6] of the same compound?
A: maintained their characteristic cobblestone morphology

Q: And the SNAIL staining [7]?
A: decreased

Q: And the “pattern of ZO-1 expression” value ([8]; 10 mM nicotinamide vs control RPE cells)?
A: localized expression of tight junction protein ZO-1 peripherally around the cell borders

Q: And the “ZO1 staining (junctional marker)” value ([8]; 10 mM nicotinamide vs no nicotinamide)?
A: high levels of ZO1 staining
